*1 amine or outer side, *2 acyl side, *3 side chain or, on linkers, in order; H or OH if unused. Where a SMILES comes first, the peptide text is derived from it. Bridges are numbered along the chain shown (N, C = ends). Roman numbers before positions name the chains, in order. [ ]: non-standard residue; d: D form. The star is where a group is joined. hTyr(3S-OH,4S-OH,3'-OSO3H) = N[C@H](C(=O)O)[C@H](O)[C@@H](O)c1ccc(O)c(OS(=O)(=O)O)c1; Actinocin(9to1) = Cc1c2oc3c(C)ccc(C(=O)[*:1])c3nc-2c(C(=O)[*:2])c(N)c1=O; Orn(4R-OH,5R-OH) = O=C([C@H](C[C@@H](O)[C@@H](O)N[*:3])N[*:1])[*:2]; Pro(3S-OH,4S-Me) = C[C@H]1CN[C@H](C(=O)O)[C@H]1O; X1 = CCCCCOc1ccc(-c2cc(-c3ccc(C(=O)*)cc3)no2)cc1; Gln(3R-OH) = NC(=O)C[C@@H](O)[C@H](N)C(=O)O; Hyp = O=C(O)[C@@H]1C[C@@H](O)CN1; NMeV = CN[C@H](C(=O)O)C(C)C; Sar = CNCC(=O)O

For data set [1], the system named is Hepatotoxicity. Briefly: Literature-mined compound from Fourches et al multi-species drug-induced liver injury (DILI) dataset, effect in humans. The note with it: human.
Data set [2] has as its system Hepatotoxicity. Briefly: Literature-mined compound from Fourches et al multi-species drug-induced liver injury (DILI) dataset, effect in rodents. The following applies: rodentia.
Data set [3] has as its system Hepatotoxicity. Briefly: Literature-mined compound from Fourches et al multi-species drug-induced liver injury (DILI) dataset, effect in non-rodents.

Turning to `C#CC1(O)CCC2C3CCC4=CC(=O)CCC4C3C(=C)CC21CC` (centres undefined) [IMPLANON], the Hepatotoxicity entry in data set [1] is “drug-induced liver injury reported”; in data set [2] it was “no drug-induced liver injury reported”; in data set [3] it was “no drug-induced liver injury reported”.

On to `NC[C@@H]1O[C@H](O[C@H]2[C@@H](O)[C@H](O[C@@H]3[C@@H](O)[C@H](N)C[C@H](N)[C@H]3O[C@H]3O[C@H](CO)[C@@H](O)[C@H](O)[C@H]3N)O[C@@H]2CO)[C@H](N)[C@@H](O)[C@@H]1O` [PAROMOMYCIN], for which the Hepatotoxicity result in data set [1] is reported as “no drug-induced liver injury reported”; in data set [2], “drug-induced liver injury reported”; in data set [3], “no drug-induced liver injury reported”.

Turning to `NC(=O)NC1NC(=O)NC1=O` (centres undefined) [ALLANTOIN], the Hepatotoxicity entry was “no drug-induced liver injury reported” in data set [1], “drug-induced liver injury reported” in data set [2] and “no drug-induced liver injury reported” in data set [3].

With `Cc1c2oc3c(C)ccc(C(=O)N[C@@H]4C(=O)N[C@H](C(C)C)C(=O)N5CCC[C@H]5C(=O)N(C)CC(=O)N(C)[C@@H](C(C)C)C(=O)O[C@@H]4C)c3nc-2c(C(=O)N[C@@H]2C(=O)N[C@H](C(C)C)C(=O)N3CCC[C@H]3C(=O)N(C)CC(=O)N(C)[C@@H](C(C)C)C(=O)O[C@@H]2C)c(N)c1=O` [DACTINOMYCIN] (I: T[dV]P[Sar][NMeV] / II: T[dV]P[Sar][NMeV]; ester I:1-I:C, II:1-II:C; linker I:N-II:N via Actinocin(9to1)), the Hepatotoxicity entry in data set [1], in data set [2] and in data set [3] was “drug-induced liver injury reported” each time.

As to `CC(=O)OCC(=O)[C@@]1(O)CC[C@H]2[C@@H]3CCC4=CC(=O)CC[C@]4(C)[C@H]3[C@@H](O)C[C@@]21C` [HYDROCORTISONE ACETATE], the figures for the Hepatotoxicity entry in data set [1], in data set [2] and in data set [3] were “no drug-induced liver injury reported”, “drug-induced liver injury reported” and “no drug-induced liver injury reported”, respectively.

On to `CN(CCOc1ccc(CC2SC(=O)NC2=O)cc1)c1ccccn1` (centres undefined) [ROSIGLITAZONE], for which the Hepatotoxicity result in data set [1] is given as “drug-induced liver injury reported”; in data set [2], “drug-induced liver injury reported”; in data set [3], “no drug-induced liver injury reported”.

`CCCCCOc1ccc(-c2cc(-c3ccc(C(=O)N[C@H]4C[C@@H](O)[C@@H](O)NC(=O)[C@@H]5[C@@H](O)[C@@H](C)CN5C(=O)[C@H]([C@H](O)CC(N)=O)NC(=O)[C@H]([C@H](O)[C@@H](O)c5ccc(O)c(OS(=O)(=O)O)c5)NC(=O)[C@@H]5C[C@@H](O)CN5C(=O)[C@H]([C@@H](C)O)NC4=O)cc3)no2)cc1` [MICAFUNGIN] (X1-[Orn(4R-OH,5R-OH)]T[Hyp][hTyr(3S-OH,4S-OH,3'-OSO3H)][Gln(3R-OH)][Pro(3S-OH,4S-Me)]; lactam 1-C): the Hepatotoxicity result in data set [1] was “drug-induced liver injury reported”; in data set [2], “no drug-induced liver injury reported”; in data set [3], “no drug-induced liver injury reported”.

As for `CCCC(=O)Nc1ncnc2c1ncn2[C@@H]1O[C@@H]2COP(=O)(O)O[C@H]2[C@H]1OC(=O)CCC` [BUCLADESINE], the Hepatotoxicity result in data set [1], in data set [2] and in data set [3] was “drug-induced liver injury reported” each time.

Turning to `Cc1nnc2n1-c1sc(Br)cc1C(c1ccccc1Cl)=NC2` [BROTIZOLAM], the Hepatotoxicity entry in data set [1] is “no drug-induced liver injury reported”; in data set [2], “drug-induced liver injury reported”; in data set [3], “no drug-induced liver injury reported”.

As to `CN[C@H](CC(C)C)C(=O)N[C@H]1C(=O)N[C@@H](CC(N)=O)C(=O)N[C@H]2C(=O)N[C@H]3C(=O)N[C@H](C(=O)N[C@H](C(=O)O)c4cc(O)cc(O)c4-c4cc3ccc4O)[C@H](O)c3ccc(c(Cl)c3)Oc3cc2cc(c3O[C@@H]2O[C@H](CO)[C@@H](O)[C@H](O)[C@H]2O[C@H]2C[C@](C)(N)[C@H](O)[C@H](C)O2)Oc2ccc(cc2Cl)[C@H]1O` [VANCOMYCIN], the Hepatotoxicity entry in data set [1] is “drug-induced liver injury reported”; in data set [2], “drug-induced liver injury reported”; in data set [3] it was “no drug-induced liver injury reported”.

As for `O=S(=O)(c1cccc2cnccc12)N1CCCNCC1` [FASUDIL], the Hepatotoxicity result in data set [1] is recorded as “drug-induced liver injury reported”; in data set [2] it was “drug-induced liver injury reported”; in data set [3] it was “no drug-induced liver injury reported”.

Turning to `CN(C)[C@@H]1C(O)=C(C(=O)NCN2CCCC2)C(=O)[C@@]2(O)C(O)=C3C(=O)c4c(O)cccc4[C@@](C)(O)[C@H]3C[C@@H]12` [ROLITETRACYCLINE], the Hepatotoxicity result is “no drug-induced liver injury reported” in data set [1], “drug-induced liver injury reported” in data set [2] and “no drug-induced liver injury reported” in data set [3].

Consider `C=C(C)[C@@H]1CCC(C)=C[C@H]1c1c(O)cc(CCCCC)cc1O` [CANNABIDIOL], for which the Hepatotoxicity result in data set [1] is on record as “drug-induced liver injury reported”; in data set [2], “drug-induced liver injury reported”; in data set [3], “no drug-induced liver injury reported”.

`C[N+](C)(C)CCOC(N)=O.[Cl-]` [CARBACHOL]: the figures for the Hepatotoxicity entry in data set [1], in data set [2] and in data set [3] were “no drug-induced liver injury reported”, “drug-induced liver injury reported” and “no drug-induced liver injury reported”, respectively.

With `CC(=O)O[C@H]1C(=O)[C@@]2(C)[C@H]([C@H](OC(=O)c3ccccc3)[C@]3(O)C[C@H](OC(=O)[C@H](O)[C@@H](NC(=O)c4ccccc4)c4ccccc4)C(C)=C1C3(C)C)[C@]1(OC(C)=O)CO[C@@H]1C[C@@H]2O` [PACLITAXEL], the figures for the Hepatotoxicity result in data set [1] (Liver), in data set [2] (Liver) and in data set [3] (Liver) were “drug-induced liver injury reported”, “drug-induced liver injury reported” and “no drug-induced liver injury reported”, respectively.

Consider `CC1=C(CC(=O)O)c2cc(F)ccc2/C1=C\c1ccc(S(C)(=O)=O)cc1` [EXISULIND], for which the results for the Hepatotoxicity result in data set [1], in data set [2] and in data set [3] were “drug-induced liver injury reported”, “no drug-induced liver injury reported” and “no drug-induced liver injury reported”, respectively.

Consider `O=C(O)c1cc(=O)[nH]c(=O)[nH]1` [OROTIC ACID], for which the values for the Hepatotoxicity entry in data set [1], in data set [2] and in data set [3] were “no drug-induced liver injury reported”, “drug-induced liver injury reported” and “no drug-induced liver injury reported”, respectively.

For the molecule `COc1ccccc1Oc1c(NS(=O)(=O)c2ccc(C(C)C)cn2)nc(-c2ccnc(-c3nnn[nH]3)c2)nc1OCCO` [TEZOSENTAN], the Hepatotoxicity result is recorded as “no drug-induced liver injury reported” in data set [1], “drug-induced liver injury reported” in data set [2] and “no drug-induced liver injury reported” in data set [3].

Turning to `CCCCC(=O)O[C@H]1CC[C@H]2[C@@H]3CCc4cc(O)ccc4[C@H]3CC[C@]12C` [ESTRADIOL VALERATE], the figures for the Hepatotoxicity entry in data set [1], in data set [2] and in data set [3] were “no drug-induced liver injury reported”, “drug-induced liver injury reported” and “no drug-induced liver injury reported”, respectively.

For the molecule `Cc1oncc1C(=O)Nc1ccc(C(F)(F)F)cc1` [LEFLUNOMIDE], the values for the Hepatotoxicity entry in data set [1], in data set [2] and in data set [3] were “drug-induced liver injury reported”, “drug-induced liver injury reported” and “no drug-induced liver injury reported”, respectively.

Regarding `CCc1oc2ccccc2c1C(=O)c1ccc(O)cc1` [BENZARONE], the Hepatotoxicity entry is “drug-induced liver injury reported” in data set [1], “drug-induced liver injury reported” in data set [2] and “no drug-induced liver injury reported” in data set [3].

For the molecule `O=C1Nc2ccccc2C1(c1ccc(O)cc1)c1ccc(O)cc1` [OXYPHENISATINE], the Hepatotoxicity result in data set [1] is on record as “drug-induced liver injury reported”; in data set [2] it was “no drug-induced liver injury reported”; in data set [3] it was “no drug-induced liver injury reported”.

On to `CC(=O)[O-].[Na+]` [SODIUM ACETATE], for which the Hepatotoxicity entry in data set [1] (Liver) was “no drug-induced liver injury reported”; in data set [2] (Liver) it was “drug-induced liver injury reported”; in data set [3] (Liver), “no drug-induced liver injury reported”.

Consider `COCCc1ccc(OCC(O)CNC(C)C)cc1` (centres undefined) [METOPROLOL], for which the figures for the Hepatotoxicity entry in data set [1], in data set [2] and in data set [3] were “drug-induced liver injury reported”, “drug-induced liver injury reported” and “no drug-induced liver injury reported”, respectively.

Turning to GLATIRAMER ACETATE, the Hepatotoxicity entry in data set [1] is recorded as “drug-induced liver injury reported”; in data set [2], “drug-induced liver injury reported”; in data set [3], “no drug-induced liver injury reported”.

On to `CC[C@H]1OC(=O)[C@H](C)[C@@H](O[C@H]2C[C@@](C)(OC)[C@@H](O)[C@H](C)O2)[C@H](C)[C@@H](O[C@@H]2O[C@H](C)C[C@H](N(C)C)[C@H]2O)[C@](C)(O)C[C@@H](C)CN(C)[C@H](C)[C@@H](O)[C@]1(C)O` [AZITHROMYCIN], for which the Hepatotoxicity result in data set [1] was “drug-induced liver injury reported”; in data set [2], “no drug-induced liver injury reported”; in data set [3] it was “no drug-induced liver injury reported”.

On to `CC(C)NCC(O)c1ccc(NS(C)(=O)=O)cc1` (centres undefined) [SOTALOL], for which the Hepatotoxicity entry in data set [1] was “no drug-induced liver injury reported”; in data set [2], “drug-induced liver injury reported”; in data set [3], “no drug-induced liver injury reported”.

As for `OC(O)C(Cl)(Cl)Cl` [CHLORAL HYDRATE], the Hepatotoxicity result in data set [1] (Liver) is recorded as “drug-induced liver injury reported”; in data set [2] (Liver) it was “drug-induced liver injury reported”; in data set [3] (Liver) it was “no drug-induced liver injury reported”.

The record behind these values is ChEMBL document CHEMBL1697731, “Cheminformatics analysis of assertions mined from literature that describe drug-induced liver injury in different species” (Chem Res Toxicol, 2010).
